{"source": "paper PMC8959600", "about": "(eLife, 2022)", "key": {"[1]": {"details": "mice, Tebipenem PO 39 mg/kg, n = 3"}, "S. flexneri EG478": {"test_system": "S. flexneri EG478", "assay": "Solid medium test at 10 µM and dose-response MIC against MDR clinical isolate", "assay_type": "cell-based, Shigella flexneri", "description": "The confirmed hit list was narrowed by applying the following filters: a 30% cut-off value, absence of undesirable structural features (e.g. electrophiles, peroxides, and Michael acceptors) and reduced physicochemical risk (maximum five aromatic rings and PFI <8)([Leeson and Young, 2015]). […] Briefly, the selected bacteria were cultured on the Luria-Bertani agar overnight at 37 °C (Campylobacter isolates were grown in 2.5% Laked Horse Blood cation-adjusted Mueller Hinton medium (CAMHB, Sigma Aldrich) and incubated in microaerophilic conditions (10% CO2, 5% O2 and 85% N2) at 42 °C); colonies were added to sterile PBS to form 0.5 McFarland solutions. All chemical testing was performed at an initial concentration of 10 μM. Bacterial suspensions were evenly spread on Mueller-Hinton agar by sterile cotton swabs (Medical Wire – MWE). […] Plates were incubated overnight at 37 °C. The activity of the chemical was recorded as being active (yes) or non-active (no) for each of the tested chemicals.\nMICs were evaluated using the micro dilution assay in Müller Hinton broth using 1 mM chemical stock solutions, and a final concentration of 5 × 10^5 CFU/mL bacteria. Twofold serial dilutions were prepared in 96-well plates at concentration ranging from 1 μM to 7.8 nM. 100 μL bacteria were added and incubated at 37 °C overnight; 10 μl of each solution was dropped onto Luria-Bertani agar and incubated overnight at 37 °C for the detection of bacterial growth. Results were interpreted as minimal concentration necessary to inhibit growth."}, "Shigella flexneri 2457T": {"test_system": "Shigella flexneri 2457T", "assay": "Resazurin growth inhibition, dose response (IC50/IC90) in Müller Hinton medium", "assay_type": "cell-based", "description": "We developed a high-throughput screening (HTS) method to identify compounds that could inhibit the growth of Shigella flexneri 2457T in Müller Hinton medium (Sigma Aldrich, UK). We adapted a resazurin reduction protocol from Franzblau et al. as surrogate readout for bacterial viability because it provided a stable signal, a low interference level, and was cost effective ([Franzblau et al., 1998]). Prior to the day of experimentation, one colony was used to inoculate 50 mL Mueller Hinton medium, and the culture was incubated overnight at 37 °C. The next day, 500 μL of the bacterial culture were inoculated into 50 mL fresh Mueller Hinton medium and bacterial growth was measured periodically at 600 nm. When the culture reached OD = 0.4–0.6, the inoculum was diluted to 1 × 10^6 CFU/mL; this bacterial suspension was added to compound pre-dispensed plates for screening.\nThe assay was performed in 1536-well polystyrene assay plates (HiBase, μClear, Greiner Bio‐One) and used to screen ~1.7 million compounds from (a) GSK naïve chemical diversity, (b) GSK antibacterial programs, and (c) marketed antimicrobial agents. All commercially available chemicals were purchased from either Sigma Aldrich, UK, AK Scientific, or Fischer Chemicals. The GSK compound screening set was sub-selected from the 8 million compound GSK collection using the principles described by Harper and co-workers ([Harper et al., 2004]). The process to generate the structural filters to remove compounds bearing undesirable/reactive chemotypes and/or non-developable physicochemical properties has been described previously by [Chakravorty et al., 2018]. […]. The set of marketed antibacterial agents included most commercial antimicrobial agents.\nFor screening, plates were prepared by dispensing 50 nl of compound from master plates at 1 mM in each well using a LabCyte Echo system. The final assay volume was 5 μl and the final compound concentration was 10 µM. The 11th and 12th columns were growth controls containing 50 nL of DMSO. The 34th and 35th columns contained 50 nL of Moxifloxacin at 20 μM as negative growth controls. Five µl of bacterial inoculum was dispensed into compound pre-dispensed plates using a Multidrop Combi dispenser (Thermo Scientific). Plates were agitated for 10 s to ensure mixing and incubated at 37 °C overnight (16–17 hr). Following overnight culture, 2 µl resazurin solution (Resazurin tablets for milk testing, BDH) was added to each well and incubated at room temperature in the dark for 3 hr. Fluorescence intensity was measured using an Envision plate reader (PerkinElmer). […] Data were analysed using Base software and statistical cut-off analysis was used for ‘hit’ selection following a standard GSK protocol. To calculate the statistical cut-off, percentage growth inhibition was calculated per well according to the plate controls, these values were aggregated to calculate the robust mean and standard deviation (SD) of the distribution. The robust mean was calculated starting from the median and the MAD of the distribution with an iterative process that aimed to remove outliers. Once the mean and SD were calculated, all compounds above mean + 3 SD were selected as primary hits.\nAfter the initial screen, we generated fresh samples of the primary compound hits and tested them in duplicate against S. flexneri 2457T at 10 μM to confirm activity. The confirmed hit list was narrowed by applying the following filters: a 30% cut-off value, absence of undesirable structural features (e.g. electrophiles, peroxides, and Michael acceptors) and reduced physicochemical risk (maximum five aromatic rings and PFI <8)([Leeson and Young, 2015]). […]."}, "Shigella (Sf2457T)": {"test_system": "Shigella (Sf2457T)", "assay": "Checkerboard synergy assay (FIC), laboratory isolate", "assay_type": "cell-based, Shigella flexneri", "description": "Before initiating drug combination assays, the MIC values for both compounds were determined against Shigella (Sf2457T), Salmonella (St14028), and E. coli (EcDH5a) isolates. […] 20 μM moxifloxacin was used as negative control (100% bacterial growth inhibition) in one column and DMSO as positive control (100% bacterial growth). A total of 25 µl of 1 × 10^6 CFU/mL bacterial culture was added to each well of a 384-well plate (μClear; Greiner Bio‐One). Plates were incubated overnight at 37 °C. Next, 10 µl of resazurin were added and plates were incubated at room temperature for 3 hr. Bacterial growth inhibition was measured by fluorescence in a Envision plate reader (PerkinElmer). All assays were performed in duplicate. Combination studies with clinical isolates were performed in 96-well plates (Greiner) adding 200 μl of 1 × 10^6 CFU/mL bacterial culture and following the same checkboard titration method as described above. The range of final working concentrations of each antimicrobial was adjusted based on the MIC of each selected organism.\nMICs were determined for drug A and drug B alone and in combination. […] The sum of FIC was expressed using the following equation: FIC = (MIC of drug A in combination / MIC of drug A alone) + (MIC of drug B in combination / MIC of drug B alone) ([Le Minh et al., 2015]; [Petersen et al., 2006]; [Hall et al., 1983]; [European Committee for Antimicrobial Susceptibility Testing (EUCAST) of the European Society of Clinical Microbiology and Infectious Dieases (ESCMID), 2000])."}, "[2]": {"details": "in combination with LpxC inhibitor PF-5081090"}}, "data": [{"smiles": "C[C@@H](O)[C@H]1C(=O)N2C(C(=O)O)=C(SC3CN(C4=NCCS4)C3)[C@H](C)[C@H]12", "note": "[Tebipenem]", "values": [{"measurement": "bioavailability", "setting": "[1]", "value": "4 ± 1", "unit": "%"}, {"measurement": "bactericidal activity", "setting": "S. flexneri EG478; MDR clinical isolate S. flexneri EG478", "value": "greatest bactericidal activity"}, {"measurement": "MIC range", "setting": "S. flexneri EG478; range over S. flexneri EG478 and S. sonnei 02-1181", "value": "0.08 to 0.15", "unit": "µg/mL"}, {"measurement": "MIC", "setting": "Shigella flexneri 2457T; 2457T, read-out: estimated MIC of S. flexneri 2457T", "value": 0.39, "unit": "µM"}, {"measurement": "IC90", "setting": "Shigella flexneri 2457T; ATCC700930", "value": 0.01, "unit": "µg/mL"}, {"measurement": "interaction (FIC index)", "setting": "Shigella (Sf2457T); [2]", "value": "partial synergy"}, {"measurement": "reduction of the MIC against Tebipenem", "setting": "Shigella (Sf2457T); [2]", "value": "> 10", "unit": "fold"}, {"measurement": "interaction (FIC index)", "setting": "Shigella (Sf2457T); in combination with azithromycin", "value": "partial synergy"}, {"measurement": "interaction (FIC index)", "setting": "Shigella (Sf2457T); in combination with ceftriaxone", "value": "indifference or partial synergy"}, {"measurement": "interaction (FIC index)", "setting": "Shigella (Sf2457T); in combination with ciprofloxacin", "value": "indifference or partial synergy"}, {"measurement": "interaction (FIC index)", "setting": "Shigella (Sf2457T); in combination with mecillinam", "value": "indifference or partial synergy"}]}]}
